# Measurements reported in patent US20220248744A1, “NICOTINE MATERIALS, METHODS OF MAKING SAME, AND USES THEREOF” (The Research Foundation for the State University of New York, priority 2019, published 2022).
# Test: not given
# Conditions: UV λ=300 nm, air flow, 1H NMR
row,Structure (SMILES),degradation after 24 hours of UV irradiation
1,"O=C(O)c1cc(O)c(C(=O)O)cc1O [2,5-Dihydroxyterepthalic Acid]","no 2,5-dihydroxyterephthalic acid degradation"
2,"CN1CCC[C@H]1c1cccnc1.O=C(O)c1cc(O)c(C(=O)O)cc1O [(S)-nicotinium 2,5-dihydroxyterephthalate]",no degradation
3,"CN1CCC[C@H]1c1cccnc1.O=C(O)c1c(O)cccc1O [(S)-nicotinium 2,6-dihydroxybenzoate]",no degradation
4,CN1CCCC1c1cccnc1.O=C(O)CC(O)C(=O)O [(S)-nicotinium D-malate],no degradation
5,CN1CCCC1c1cccnc1.O.O=C(O)c1cc(=O)[nH]c(=O)[nH]1 [(S)-nicotinium orotate monohydrate],no degradation
6,"CN1CCC[C@H]1c1cccnc1.O=C(O)C[C@H](O)C(=O)O [monoclinic P21 (S)-nicotinium L-malate, (S)-nicotinium L-malate]",no degradation
7,"CN1CCC[C@H]1c1cccnc1.O=C(O)c1ccccc1O [monoclinic P21 (S)-nicotinium salicylate, (S)-nicotinium salicylate]",no degradation
8,O=C(O)c1cc(=O)[nH]c(=O)[nH]1 [orotic acid],no orotic acid degradation
9,CN1CCC[C@H]1c1cccnc1.O=C(O)C[C@H](O)C(=O)O [orthorhombic P212121 (S)-nicotinium L-malate],no degradation

# Test: not given
# Conditions: cited from earlier work
row,Structure (SMILES),pKa (Strongest Acidic)
1,"O=C(O)c1c(O)cc(O)cc1O [2,4,6-Trihydroxybenzoic Acid]",1.83
2,"O=C(O)c1c(O)cccc1O [2,6-Dihydroxybenzoic Acid]",1.51
3,Nc1cccc(C(=O)O)c1O [3-Aminosalicylic Acid],2.90
4,COc1ccc(C(=O)O)c(O)c1 [4-Methoxysalicylic Acid],3.09
5,"O=C(O)c1cc(Cc2ccc(O)c(C(=O)O)c2)ccc1O [5,5′-Methylenedisalicylic Acid]",2.94
6,COc1ccc(O)c(C(=O)O)c1 [5-Methoxysalicylic acid],2.52
7,NC(C(=O)O)C(=O)O [Aminomalonic Acid],0.45
8,COC(=O)[C@H](Cc1ccccc1)NC(=O)[C@@H](N)CC(=O)O [Aspartame],3.53
9,C[N+](C)(C)CC(=O)O [Betaine],2.26
10,O=C(/C=C/c1ccc(O)c(O)c1)O[C@@H](C(=O)O)[C@@H](O)C(=O)O [Caftaric Acid],2.96
11,C[N+](C)(C)CC(O)CC(=O)[O-] (stereo not shown) [Carnitine],4.20
12,O=C(O)C=Cc1ccccc1 [Cinnamic acid],4.01
13,CC(O)(CC(=O)O)C(=O)O (stereo not shown) [Citramalic Acid],3.35
14,OC[C@@H](O)[C@@H](O)CO [Erythritol],13.04
15,O=C(O)/C=C/C(=O)O [Fumaric Acid],3.55
16,O=C(O)[C@H](O)[C@@H](O)[C@@H](O)[C@H](O)CO [Galactonic Acid],3.39
17,O=C[C@H](O)[C@@H](O)[C@@H](O)[C@H](O)C(=O)O [Galacturonic Acid],3.24
18,O=C(O)/C=C\C(=O)O [Maleic Acid],3.05
19,CC1CCC(C(C)C)C(O)C1 (stereo not shown) [Menthol],19.55
20,COc1cccc(C(=O)O)c1 [Meta-Anisic Acid],3.84
21,COc1ccccc1C(=O)O [Ortho-Anisic Acid],3.73
22,COc1ccc(C(=O)O)cc1 [Para-Anisic Acid],4.37
23,CC(=O)C(=O)O [Pyruvic Acid],2.93
24,C=C1C[C@@]23CC[C@H]4[C@@](C)(CCC[C@@]4(C)C(=O)O)[C@@H]2CC[C@]1(O)C3 [Steviol],4.70
25,O=C(O)CCC(=O)O [Succinic Acid],3.55
26,OC[C@H]1O[C@H](O[C@]2(CCl)O[C@H](CCl)[C@@H](O)[C@@H]2O)[C@H](O)[C@@H](O)[C@H]1Cl [Sucralose],1.91
27,OC[C@H]1O[C@@](CO)(O[C@H]2O[C@H](CO)[C@@H](O)[C@H](O)[C@H]2O)[C@@H](O)[C@@H]1O [Sucrose],11.84
29,O=C(O)C(O)C(=O)O [Tartronic Acid],2.42
30,OC[C@@H](O)[C@H](O)[C@@H](O)CO [Xylitol],12.76

# Test: Thermal analysis (differential scanning calorimetry / melting point): thermodynamic stability
# Format: physicochemical
# Conditions: based on DSC thermal analysis
# Procedure: Differential Scanning calorimetry (DSC). A differential scanning calorimeter, model DSC Q200 (TA Instrument, USA) was used to measure the thermal transitions of the samples. About 10 mg of each synthesized compound was placed into an aluminum pan and sealed. Each sample, except (S)-nicotinium 2,6-Dihydroxybenzoate, was scanned from 0 to 150° C. at 20° C./min under nitrogen flow for at least 2 full cycles. (S)-nicotinium 2,6-Dihydroxybenzoate was scanned from 0 to 175° C. at 20° C./min under nitrogen flow for at least 2 full cycles.
# Melting Point (MP): A Stuart SMP10 melting point apparatus was utilized to measure the melting point of each of the synthesized compounds. 4 replicates were run for each compound. The plateau temperature was set to 100° C. for each of the salts, except (S)-nicotinium D-malate, and then ramped at 2° C./minute. The plateau temperature was set to 80° C. for the (S)-nicotinium D-malate salt and ramped at 2° C./minute.
# Thermal Analysis. […] This was confirmed via differential scanning calorimetry (DSC) by a very broad endotherm 116.4° C. […] This was confirmed by DSC where in the sharp endotherm at 123.5° C. indicated the melting of this (S)-nicotinium L-malate salt. […] This was confirmed via DSC, wherein the sharp endotherm at 95.2° C. The orthorhombic P212121 (S)-nicotinium DL-malate was initially observed as having a broad melting point of 76-78° C. The was confirmed via DSC wherein a melting point of 77.8° C., though with a very broad curve. […] Monoclinic P21 (S)-nicotinium 2,6-dihydroxybenzoate salt had the highest melting observed thus far. The sharp endotherm at 158.5° C. confirmed the observed melting point. Monoclinic P21 (S)-nicotinium 2,5-dihydroxyterephthalate was observed initially as having a tight melting point range of 196-198° C.
row,Structure (SMILES),thermodynamic / thermal stability
1,"CN1CCC[C@H]1c1cccnc1.O=C(O)c1cc(O)c(C(=O)O)cc1O [(S)-nicotinium 2,5-dihydroxyterephthalate]",highest observed thermal stability
2,"CN1CCC[C@H]1c1cccnc1.O=C(O)c1c(O)cccc1O [(S)-nicotinium 2,6-dihydroxybenzoate]",highest observed thermal stability
3,CN1CCCC1c1cccnc1.O=C(O)CC(O)C(=O)O [(S)-nicotinium D-malate],thermodynamically less stable than either of the (S)-nicotinium L-malate salts
4,"CN1CCC[C@H]1c1cccnc1.O=C(O)C[C@H](O)C(=O)O [monoclinic P21 (S)-nicotinium L-malate, (S)-nicotinium L-malate]",most thermodynamically favored and stable malate salt
5,CN1CCC[C@H]1c1cccnc1.O=C(O)C[C@H](O)C(=O)O [orthorhombic P212121 (S)-nicotinium L-malate],more thermodynamically stable than the orthorhombic P212121 (S)-nicotinium D-malate

# Same assay, conditions: based on DSC thermal analysis; listed as Monoclinic P21 (S)-nicotinium L-malate
row,Structure (SMILES),thermodynamic / thermal stability
1,"CN1CCC[C@H]1c1cccnc1.O=C(O)C[C@H](O)C(=O)O [monoclinic P21 (S)-nicotinium L-malate, (S)-nicotinium L-malate]",thermodynamically more stable than the orthorhombic P212121 (S)-nicotinium L-malate

# Test: Aerosolization/Vaporization Analysis (iStick Pico with Sai atomizer, syringe as lung analog)
# Conditions: heating in bucket coil; decarboxylation of the acid coformer
row,Structure (SMILES),degradation product formed during vaporization
1,"CN1CCC[C@H]1c1cccnc1.O=C(O)c1ccccc1O [monoclinic P21 (S)-nicotinium salicylate, (S)-nicotinium salicylate]",phenol was likely also formed
